This is an account of results in patent US6949548B2, “Combination therapy for the treatment of heart failure” (Orion Corporation, priority 2001, dated 2005).

This assay has as its system heart failure patients. The experiment in a line: Effect of the combination on the mortality of heart failure patients. The assay is classed as in vivo, human. The method, then: Effect of the Combination on the Mortality of Heart Failure Patients
A 6-hour infusion of levosimendan using a bolus of 6, 12 or 24 μg/kg and subsequent infusion of 0.1, 0.2 or 0.4 μg/kg/min was given to heart failure patients with or without concomitant use of a beta-blocker. The 72-hour, 14-day and 180 day mortality was measured. It can be seen that the combination provided synergistic reduction in the mortality of the heart failure patients.

The mark [1] stands for this setting: LS 6 + 0.1 (bolus 6 μg/kg, infusion 0.1 μg/kg/min, 6-hour), did not receive beta-blocker, N = 60.
Where [2] appears, read: LS 6 + 0.1 (bolus 6 μg/kg, infusion 0.1 μg/kg/min, 6-hour), received beta-blocker, N = 43.
[3] abbreviates: LS 12 + 0.2 (bolus 12 μg/kg, infusion 0.2 μg/kg/min, 6-hour), did not receive beta-blocker, N = 62.
Setting [4] is: LS 12 + 0.2 (bolus 12 μg/kg, infusion 0.2 μg/kg/min, 6-hour), received beta-blocker, N = 38.
Setting [5] is: LS 24 + 0.2 (bolus 24 μg/kg, infusion 0.2 μg/kg/min, 6-hour), did not receive beta-blocker, N = 67.
Where [6] appears, read: LS 24 + 0.2 (bolus 24 μg/kg, infusion 0.2 μg/kg/min, 6-hour), received beta-blocker, N = 32.
Setting [7] is: LS 24 + 0.4 (bolus 24 μg/kg, infusion 0.4 μg/kg/min, 6-hour), did not receive beta-blocker, N = 57.
Setting [8] is: LS 24 + 0.4 (bolus 24 μg/kg, infusion 0.4 μg/kg/min, 6-hour), received beta-blocker, N = 42.

Each structure is given as a SMILES string.

On to `CC1CC(=O)NN=C1c1ccc(NN=C(C#N)C#N)cc1` (single isomer, unassigned; (-)) [LS, (−)-enantiomer of [[4-(1,4,5,6-tetrahydro-4-methyl-6-oxo-3-pyridazinyl)phenyl]hydrazono]propanedinitrile], for which the “14-day mortality, %” value under setting [1] is 15.0%; the “14-day mortality, %” value under setting [2] amounted to 9.3%; the “14-day mortality, %” value under setting [3] stood at 8.1%; the “14-day mortality, %” value under setting [4] is on record as 10.5%; the “14-day mortality, %” value under setting [5] came out at 14.9%; the “14-day mortality, %” value under setting [6] stood at 9.4%. The “14-day mortality, %” value by setting is: under setting [7], 15.8%; under setting [8], 4.8%. Also, the “72-hour mortality, %” value amounted to 8.3% under setting [1]; 2.3% under setting [2]; 1.6% under setting [3]; 5.3% under setting [4]; 7.5% under setting [5]; 0.0% under setting [6]. In addition, the “72-hour mortality, %” value is, setting by setting: under setting [7], 8.8%; under setting [8], 0.0%. Moreover, the “180-day mortality, %” value under setting [1] turned out to be 50.0%; the “180-day mortality, %” value under setting [2] came out at 30.2%; the “180-day mortality, %” value under setting [3] is on record as 40.3%; the “180-day mortality, %” value under setting [4] turned out to be 26.3%; the “180-day mortality, %” value under setting [5] was determined as 46.3%; the “180-day mortality, %” value under setting [6] came to 37.5%. Further, the “180-day mortality, %” value was 45.6% under setting [7] and 23.8% under setting [8].
